According to publication PMC4369170 (ACS chemical biology, 2015):
Read-outs that look alike come from different tables or passages of the source.

Legend:
[1] = biological target: T1, PfENT1 (Plasmodium falciparum, UniProt Q8IDM6); assay: cell-based; settings: 125 µM 5-FUrd
[2] = biological target: T1, PfENT1; format: cell-based
[3] = test system: chloroquine-resistant Dd2 parasites; assay: Dd2 parasite viability / proliferation; format: cell-based, Plasmodium falciparum; settings: for IC50: Plasmodium falciparum, DD2, read-out: IC50 Dd2 parasite viability – high purine media; for IC50 with xanthine as purine source versus hypoxanthine: WT Dd2, 90 µM xanthine vs 10 µM hypoxanthine as sole purine source
[4] = biological target: T1, PfENT1; assay: [3H]adenosine uptake into ade2Δ + PfENT1-CO yeast; format: cell-based
[5] = biological target: T1, PfENT1; format: cell-based; settings: each compound at 10 µM; 125 µM 5-FUrd
[6] = biological target: T1, PfENT1; settings: cited from earlier work
[7] = test system: fui1Δ::PfENT1-HA-CO strain; assay: 5-FUrd growth inhibition of PfENT1-HA-CO expressing fui1Δ yeast; format: cell-based; settings: Saccharomyces cerevisiae, read-out: 5-FUrd IC50, yeast cell growth, growth assessed by OD600
[8] = test system: P. falciparum 3D7 strain; assay: 3D7 parasite viability / proliferation, 72-h growth assay; settings: ~10× the IC50 concentration; first 24 h of culture
[9] = test system: PfENT4; assay: [14C]2-deoxyadenosine uptake into PfENT4-expressing Xenopus oocytes; format: cell-based, Plasmodium falciparum; settings: concentrations up to 50 µM
[10] = EC50 5-FUrd growth rescue of fui1Δ::PfENT1-HA-CO, mean ± SD, N ≥ 3

T1 sequence (Q8IDM6 whole entry): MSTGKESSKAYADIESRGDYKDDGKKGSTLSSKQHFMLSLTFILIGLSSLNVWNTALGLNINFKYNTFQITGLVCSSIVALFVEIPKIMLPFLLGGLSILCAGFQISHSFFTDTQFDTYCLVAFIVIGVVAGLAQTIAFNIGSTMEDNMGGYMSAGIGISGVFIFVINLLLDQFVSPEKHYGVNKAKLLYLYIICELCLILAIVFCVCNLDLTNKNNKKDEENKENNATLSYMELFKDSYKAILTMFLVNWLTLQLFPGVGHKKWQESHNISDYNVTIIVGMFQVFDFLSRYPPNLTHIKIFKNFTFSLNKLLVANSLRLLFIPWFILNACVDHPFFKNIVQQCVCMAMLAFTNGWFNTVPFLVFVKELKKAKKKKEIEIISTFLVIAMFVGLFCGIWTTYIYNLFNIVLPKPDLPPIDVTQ

Row | SMILES | EC50 [1, 10] [µM] | IC50 [2] [nM] | IC50 [3] [µM] | IC50 with xanthine as purine source versus hypoxanthine [3] | also measured
1 | O=C(Nc1ccc(-c2nc3ncccc3o2)cc1)c1ccccc1Br [Compound 2, 2-bromo-N-(4-[1,3]oxazolo[4,5-b]pyridin-2-ylphenyl)benzamide] | 6 ± 1.7 | 2100 ± 900 | 52.4 ± 5.7 | significantly lower | –
2 | OC[C@H]1O[C@@H](n2cnc3c(O)ncnc32)[C@H](O)[C@@H]1O [Inosine, inosine, reference compound] | – | – | – | – | EC50 ([1]; EC50 rescue of fui1Δ::PfENT1-HA-CO strain growth, OD600): 3300 ± 200 µM; EC50 ([1]; EC50 rescue of fui1Δ::PfENT1-HA-CO strain growth, fluorescence): 5600 ± 2100 µM
3 | O=C(Nc1ccc(-c2nnc(-c3ccco3)o2)cc1)c1ccco1 [Compound 4, N-{4-[5-(2-furyl)-1,3,4-oxadiazol-2-yl]phenyl}-2-furamide] | 5.7 ± 0.8 | 1700 ± 400 | 15.3 ± 2.7 | – | –
4 | Cc1ccccc1/C=C/c1nc2ccccc2c(=O)[nH]1 [Compound 13, 2-[2-(2-methylphenyl)vinyl]-4(3H)-quinazolinone] | 4.7 ± 2.9 | 600 ± 100 | 2.6 ± 0.2 | – | IC50 [4]: 3.9 ± 1.6 nM
5 | OCCN(CCO)c1nc(N2CCCCC2)c2nc(N(CCO)CCO)nc(N3CCCCC3)c2n1 [dipyridamole] | – | – | – | – | HTS outcome (positive = growth > four SD above no-growth control) [5]: not positive; block of PfENT1 [6]: do not block
6 | O=C(Nc1cccc(-c2nc3ncccc3o2)c1)c1cccc(F)c1 [Compound 6, 3-fluoro-N-(3-[1,3]oxazolo[4,5-b]pyridin-2-ylphenyl)benzamide] | 5.7 ± 1.3 | 1100 ± 100 | 38.8 ± 4.9 | – | –
7 | O=[N+]([O-])c1ccc(CSc2ncnc3c2ncn3C2OC(CO)C(O)C2O)cc1 (stereo not shown) [nitrobenzylthioinosine] | – | – | – | – | block of PfENT1 [6]: do not block
8 | O=C(Nc1ccc(Cl)c(-c2nc3ncccc3o2)c1)c1cccs1 [Compound 19, N-(4-chloro-3-[1,3]oxazolo[4,5-b]pyridin-2-ylphenyl)-2-thiophenecarboxamide] | 5.4 ± 0.8 | 1700 ± 200 | 37.4 ± 1.6 | – | –
9 | Cn1cc(C(=O)C(=O)Nc2ccc(C(=O)N3CCCC3)cc2)c2ccccc21 [Compound 5, 2-(1-methyl-1H-indol-3-yl)-2-oxo-N-[4-(pyrrolidin-1-ylcarbonyl)phenyl]acet amide] | 6.5 ± 1.5 | 2000 ± 10 | 28.9 ± 2.6 | significantly lower | –
10 | O=C(Nc1ccc2nc(NC(=O)c3ccco3)sc2c1)c1ccco1 [Compound 1, N,N'-1,3-benzothiazole-2,6-diyldi(2-furamide)] | 0.8 | 200 ± 100 | 25.8 ± 1.3 | significantly lower | –
11 | O=c1[nH]c(=O)n([C@@H]2O[C@H](CO)[C@@H](O)[C@H]2O)cc1F [5-FUrd, 5-fluorouridine] | – | – | – | – | IC50 [7]: 7 ± 2 µM
12 | COc1cc(COc2ccc3c(C)cc(=O)oc3c2)cc(OC)c1OC [Compound 3, 4-methyl-7-[(3,4,5-trimethoxybenzyl)oxy] -2H-chromen-2-one] | 2.3 ± 0.9 | 600 ± 100 | 36.2 ± 6 | significantly lower | parasite stage progression (microscopy) [8]: failed to progress beyond the ring stage; inhibition of [14C]2-deoxyadenosine uptake [9]: did not inhibit
13 | COc1ccccc1C(=O)Nc1cccc(-c2nc3ncccc3o2)c1 [Compound 7, 2-methoxy-N-(3-[1,3]oxazolo[4,5-b]pyridin-2-ylphenyl)benzamide] | 6.4 ± 0.9 | 1600 ± 10 | 31 ± 0.6 | – | –
